Our source for the IC50 values is patent US20040102423A1, “Spironolactone and angiotensin II antagonist combination therapy for treatment of congestive heart failure” (G.D. Searle & Co., priority 1995, published 2004).

This test addresses angiotensin II AT1 receptor. The experiment in a line: Assay A: Angiotensin II binding activity, rat uterine membrane preparation, 125I-AII displacement. How it is done:
Assay A: Antiotensin II Binding Activity
Compounds of the invention were tested for ability to bind to the smooth muscle angiotensin II receptor using a rat uterine membrane preparation. […] Rat uterine membranes were prepared from fresh tissue. All procedures were carried out at 4° C. Uteri were stripped of fat and homogenized in phosphate-buffered saline at pH 7.4 containing 5 mM EDTA. The homogenate was centrifuged at 1500×g for 20 min., and the supernatant was recentrifuged at 100,000×g for 60 min. The pellet was resuspended in buffer consisting of 2 mM EDTA and 50 mM Tris-HCl (pH 7.5) to a final protein concentration of 4 mg/ml. […] The reaction was initiated by the addition of membrane protein and the mixture was incubated at 25° C. for 60 min. The incubation was terminated with ice-cold 50 mM Tris-HCl (pH 7.5) and the mixture was filtered to separate membrane-bound labelled peptide from the free ligand. The incubation tube and filter were washed with ice-cold buffer. Filters were assayed for radioactivity in a Micromedic gamma counter. Nonspecific binding was defined as binding in the presence of 10 μM of unlabelled AII. Specific binding was calculated as total binding minus nonspecific binding. […] Binding data were analyzed by a nonlinear least-squares curve fitting program.
By IC50 is commonly meant the concentration that gives 50% inhibition. Read a high IC50 as weaker potency. As for `C[C@]12CCC(=O)C=C1C1CC1[C@H]1[C@@H]3CC[C@@](O)(CCC(=O)O)[C@@]3(C)CC3O[C@]312` (stereo partly shown) [Compound 8], the IC50 was 17000 nM.

The compound `CCCCc1nc(C(F)(F)CCC)nn1Cc1ccc(-c2ccccc2-c2nnn[nH]2)cc1` [Compound 21] came in with an IC50 of 87 nM.

Turning to `CCCc1nc(CCC)n(Cc2ccc(-c3ccccc3-c3nnn[nH]3)cc2)n1` [Compound 23], the IC50 was 430 nM.

With `CCCCc1nc(CCC(C)C)n(Cc2ccc(-c3ccccc3-c3nnn[nH]3)cc2)n1` [Compound 27], the IC50 turned out to be 180 nM.

With `CCCCc1nc(CCC(C)C)nn1Cc1ccc(-c2ccccc2-c2nnn[nH]2)cc1` [Compound 28], the IC50 amounted to 570 nM.

In turn, `CCCCc1ncnn1Cc1ccc(-c2ccccc2C(=O)O)cc1` [Compound 29] showed an IC50 of 160 nM.

In turn, `CCCCc1nc(-c2ccccc2)nn1Cc1ccc(-c2ccccc2-c2nnn[nH]2)cc1` [Compound 32] had an IC50 of 16 nM.

For the compound `CCCCc1nc(-c2ccccc2)n(Cc2ccc(-c3ccccc3-c3nnn[nH]3)cc2)n1` [Compound 33], the IC50 was 630 nM.

`CCCCc1nc(C(OC)OC)n(Cc2ccc(-c3ccccc3-c3nnn[nH]3)cc2)n1` [Compound 34] displayed an IC50 of 640 nM.

As for `CCCCc1nc(CN)nn1Cc1ccc(-c2ccccc2-c2nnn[nH]2)cc1` [Compound 38], the IC50 turned out to be 10 nM.

Regarding `CCCCCCCCc1nc(CCCC)n(Cc2ccc(-c3ccccc3-c3nnn[nH]3)cc2)n1` [Compound 40], the IC50 was found to be 83 nM.

As to `CCCCc1nc(C(=O)CCC)nn1Cc1ccc(-c2ccccc2-c2nnn[nH]2)cc1` [Compound 41], the IC50 was 3700 nM.

For `CCCCc1nc(C(=O)CCC)nn1Cc1ccc(-c2ccccc2-c2nnn[nH]2)cc1` [Compound 42], the IC50 worked out at 370 nM.

On to `CCCCc1nc(C)nn1Cc1ccc(-c2ccccc2-c2nnn[nH]2)cc1` [Compound 43], for which the IC50 was determined as 19 nM.

`CCCCc1nc(C)n(Cc2ccc(-c3ccccc3-c3nnn[nH]3)cc2)n1` [Compound 44] gave an IC50 of 16 nM.

Consider `CCCCc1nc(CC(OCC)OCC)n(Cc2ccc(-c3ccccc3-c3nnn[nH]3)cc2)n1` [Compound 48], for which the IC50 was 680 nM.

Compound `CCCCc1nc(Cc2ccccc2)nn1Cc1ccc(-c2ccccc2-c2nnn[nH]2)cc1` [Compound 55] gave an IC50 of 80 nM.

On to `CCCCc1nc(CCCO)nn1Cc1ccc(-c2ccccc2-c2nnn[nH]2)cc1` [Compound 56], for which the IC50 was 5 nM.

In turn, `CCCCc1nc(C(F)F)n(Cc2ccc(-c3ccccc3-c3nnn[nH]3)cc2)n1` [Compound 59] registered an IC50 of 120 nM.

`CCCCc1nc(C=O)nn1Cc1ccc(-c2ccccc2-c2nnn[nH]2)cc1` [Compound 60] yielded an IC50 of 2200 nM.

Regarding `CCCCc1nc(C(=O)Cc2ccccc2)nn1Cc1ccc(-c2ccccc2-c2nnn[nH]2)cc1` [Compound 61], the IC50 was determined as 110 nM.

Consider `CCCCc1nc(C23CC4CC(CC(C4)C2)C3)n(Cc2ccc(-c3ccccc3-c3nnn[nH]3)cc2)n1` [Compound 66], for which the IC50 came to 12 nM.

Regarding `CCCCc1nc(CCCC2CCCCC2)n(Cc2ccc(-c3ccccc3-c3nnn[nH]3)cc2)n1` [Compound 68], the IC50 worked out at 8.6 nM.

In the case of `CCCCc1nc(CCCC2CCCCC2)nn1Cc1ccc(-c2ccccc2-c2nnn[nH]2)cc1` [Compound 69], the IC50 turned out to be 15 nM.

For `CCCCc1nc(CF)nn1Cc1ccc(-c2ccccc2-c2nnn[nH]2)cc1` [Compound 70], the IC50 came out at 44 nM.

With `CCCCc1nc(CCC(=O)O)n(Cc2ccc(-c3ccccc3-c3nnn[nH]3)cc2)n1` [Compound 75], the IC50 amounted to 570 nM.

Consider `CCCCc1nn(CC(=O)c2ccccc2)c(=O)n1Cc1ccc(-c2ccccc2-c2nn[nH]n2)cc1` [Compound 93], for which the IC50 was determined as 480 nM.

`CCCCc1nn(CC(O)c2ccccc2)c(=O)n1Cc1ccc(-c2ccccc2-c2nn[nH]n2)cc1` (stereo not shown) [Compound 94] showed an IC50 of 5800 nM.

In the case of `CCCCc1nc2c(Cl)nnc(Cl)c2n1Cc1ccc(-c2ccccc2-c2nnn[nH]2)cc1` [Compound 121], the IC50 stood at 46 nM.

Take `CCCCc1nc2c(O)nnc(O)c2n1Cc1ccc(-c2ccccc2-c2nnn[nH]2)cc1` [Compound 122]: the IC50 was found to be 46 nM.

Compound `CCCCc1nc2c(OCC)nnc(OCC)c2n1Cc1ccc(-c2ccccc2-c2nnn[nH]2)cc1` [Compound 123] yielded an IC50 of 50 nM.

`CCCCn1nc(CCc2ccccc2)nc1Cc1ccc(-c2ccccc2-c2nnn[nH]2)cc1` [Compound 142] yielded an IC50 of 2 nM.

As to `CCCCc1nc(Cc2ccc(-c3ccccc3-c3nnn[nH]3)nc2)n(CCCC)n1` [Compound 161], the IC50 was 28 nM.

`CCCCn1nc(CCc2ccccc2)nc1Cc1ccc(-c2ccccc2-c2nnn[nH]2)nc1` [Compound 162] had an IC50 of 380 nM.

`CCCCn1nc(CCC)nc1Cc1ccc(-c2ccccc2-c2nnn[nH]2)nc1` [Compound 163] yielded an IC50 of 420 nM.

For `CCCCn1nc(CCc2cccs2)nc1Cc1ccc(-c2ccccc2-c2nnn[nH]2)nc1` [Compound 164], the IC50 stood at 1700 nM.

The compound `CCCn1nc(C(F)F)nc1Cc1ccc(-c2ccccc2-c2nnn[nH]2)nc1` [Compound 173] displayed an IC50 of 90 nM.

In the case of `CCCCn1nc(C(=O)N(C)C(C)(C)C)nc1Cc1ccc(-c2ccccc2-c2nnn[nH]2)nc1` [Compound 182], the IC50 stood at 59 nM.

In turn, `CCCCn1nc(C(=O)NC)nc1Cc1ccc(-c2ccccc2-c2nnn[nH]2)nc1` [Compound 183] registered an IC50 of 390 nM.

Compound `CCCCn1nc(C(OCC)OCC)nc1Cc1ccc(-c2ccccc2-c2nnn[nH]2)nc1` [Compound 187] returned an IC50 of 770 nM.

`CCCCn1nc(C(OCCC)OCCC)nc1Cc1ccc(-c2ccccc2-c2nnn[nH]2)nc1` [Compound 188] gave an IC50 of 140 nM.

With `CCCCn1nc(C(OC(C)C)OC(C)C)nc1Cc1ccc(-c2ccccc2-c2nnn[nH]2)nc1` [Compound 189], the IC50 was 29 nM.

`CCCCn1nc(C2OCC(C)(C)CO2)nc1Cc1ccc(-c2ccccc2-c2nnn[nH]2)nc1` [Compound 192] returned an IC50 of 140 nM.

Take `CCCCc1nc(Cc2ccc(-c3ccccc3-c3nnn[nH]3)nc2)n(CC(C)(C)C)n1` [Compound 195]: the IC50 was determined as 34 nM.

`CCCCc1cn(CCCC)c(=O)n1Cc1ccc(-c2ccccc2-c2nnn[nH]2)nc1` [Compound 196]: the IC50 worked out at 31 nM.

With `CCCc1cn(CCC)c(=O)n1Cc1ccc(-c2ccccc2-c2nnn[nH]2)nc1` [Compound 197], the IC50 was 14 nM.

In the case of `CCCCc1cn(CCC)c(=O)n1Cc1ccc(-c2ccccc2-c2nnn[nH]2)nc1` [Compound 207], the IC50 came to 99 nM.

For the compound `CCCCc1cn(CC(C)(C)C)c(=O)n1Cc1ccc(-c2ccccc2-c2nnn[nH]2)nc1` [Compound 213], the IC50 was determined as 51 nM.

`CCCCc1cn(CCC(C)(C)C)c(=O)n1Cc1ccc(-c2ccccc2-c2nnn[nH]2)nc1` [Compound 214]: the IC50 stood at 65 nM.

Consider `CCCCc1cn(CC(CC)CC)c(=O)n1Cc1ccc(-c2ccccc2-c2nnn[nH]2)nc1` [Compound 215], for which the IC50 turned out to be 45 nM.

As to `CCCCc1cn(C2CCCC2)c(=O)n1Cc1ccc(-c2ccccc2-c2nnn[nH]2)nc1` [Compound 218], the IC50 stood at 9 nM.

Take `CCCCc1cn(CC2CCCC2)c(=O)n1Cc1ccc(-c2ccccc2-c2nnn[nH]2)nc1` [Compound 219]: the IC50 stood at 14 nM.
